Type in all cases: cell-based
The subject of one assay is Enterovirus strain 71. The assay is described as follows: CPE inhibition in mammalian cell culture, EV71. To be noted: for inhibition at 1 µM: EV71, Conc. 1.0 μM; for inhibition at 0.01 µM: EV71, Conc. 0.01 μM.
The test system of a further assay is Ljungan virus strain 145. In words: CPE inhibition in mammalian cell culture, LV145. To be noted: Parechovirus B; for inhibition at 10 µM: LV145, Conc. 10.0 μM; for inhibition at 1 µM: LV145, Conc. 1.0 μM.
The subject of another assay is Enterovirus strain 30. The assay is described as follows: CPE inhibition in mammalian cell culture, EV30.
In assay [1] the test system is coxsackie B virus strain 5. The assay is described as follows: CPE inhibition in mammalian cell culture, Cox-B5. To be noted: read-out: % inh.
The subject of another assay is Ljungan virus strain 012. In words: CPE inhibition in mammalian cell culture, LV012. To be noted: Parechovirus B, read-out: % inh.; for inhibition at 10 µM: LV012, Conc. 10 μM.
The test system of assay [2] is coxsackie B virus strain 3. The assay is described as follows: CPE inhibition in mammalian cell culture, Cox-B3. To be noted: read-out: % inh.
The test system of assay [3] is coxsackie B virus strain 1. The assay is described as follows: CPE inhibition in mammalian cell culture, Cox-B1. To be noted: read-out: % inh.

In the assay on Enterovirus strain 71, `Cc1cc(NCc2ccccc2)n2nc(C)c(-c3ccc(F)cc3)c2n1` [Ex. 13, N-benzyl-3-(4-fluorophenyl)-2,5-dimethyl-pyrazolo[1,5-a]pyrimidin-7-amine] had an inhibition at 1 µM of 66%.
With `CCc1nn2c(NCCCn3ccnc3)cc(C)nc2c1-c1ccccc1` [Ex. 31, 2-ethyl-N-(3-imidazol-1-ylpropyl)-5-methyl-3-phenyl-pyrazolo[1,5-a]pyrimidin-7-amine], the inhibition at 10 µM with Ljungan virus strain 145 is 14%.
`Cc1ccc(-c2c(C)nn3c(NCc4cccnc4)cc(C)nc23)cc1` [Ex. 34, 2,5-dimethyl-3-(p-tolyl)-N-(3-pyridylmethyl)pyrazolo[1,5-a]pyrimidin-7-amine]: in the assay on Enterovirus strain 71, the inhibition at 1 µM was 100%.
`COc1ccc(-c2c(C)nn3c(NCc4ccccn4)cc(C)nc23)cc1OC` [Ex. 35, 3-(3,4-dimethoxyphenyl)-2,5-dimethyl-N-(2-pyridylmethyl)pyrazolo[1,5-a]pyrimidin-7-amine] came in with an inhibition at 0.1 µM with Enterovirus strain 30 (EV30, Conc. 0.1 μM) of 88%.
For the molecule `Cc1cc(NCc2cccnc2)n2nc(C)c(-c3ccc(F)cc3)c2n1` [Ex. 36, 3-(4-fluorophenyl)-2,5-dimethyl-N-(3-pyridylmethyl)pyrazolo[1,5-a]pyrimidin-7-amine], in assay [1], the inhibition at 1 µM was determined as 97%.
In the case of `Cc1cc(NC2CCCC2)n2nc(C)c(-c3ccc(F)cc3)c2n1` [Ex. 38, N-cyclopentyl-3-(4-fluorophenyl)-2,5-dimethyl-pyrazolo[1,5-a]pyrimidin-7-amine], in the assay on Ljungan virus strain 145, the inhibition at 10 µM turned out to be 84%.
In the case of `COc1ccc(-c2c(C)nn3c(NCc4ccccc4)cc(C)nc23)cc1OC` [Ex. 40, N-benzyl-3-(3,4-dimethoxyphenyl)-2,5-dimethyl-pyrazolo[1,5-a]pyrimidin-7-amine], the inhibition at 0.01 µM with Enterovirus strain 71 is 100%.
`Cc1cc(NCc2cccnc2)n2nc(C)c(-c3ccc(Cl)cc3)c2n1` [Ex. 45, 3-(4-chlorophenyl)-2,5-dimethyl-N-(3-pyridylmethyl)pyrazolo[1,5-a]pyrimidin-7-amine] gave an inhibition at 1 µM in the assay with Enterovirus strain 71 of 100%.
In the case of `COc1ccc(-c2c(C)nn3c(Nc4ccc(Br)cc4)cc(C)nc23)cc1OC` [Ex. 46, N-(4-bromophenyl)-3-(3,4-dimethoxyphenyl)-2,5-dimethyl-pyrazolo[1,5-a]pyrimidin-7-amine], the inhibition at 10 µM with Ljungan virus strain 145 worked out at 92%.
The same measure, in the same setting: the figure for `COc1ccc(-c2c(C)nn3c(Nc4cccc(Cl)c4)cc(C)nc23)cc1OC` [Ex. 51, N-(3-chlorophenyl)-3-(3,4-dimethoxyphenyl)-2,5-dimethyl-pyrazolo[1,5-a]pyrimidin-7-amine] is 94%.
On the same count and under the same terms, next, `COc1ccc(-c2c(C)nn3c(Nc4ccc(C)c(C)c4)cc(C)nc23)cc1OC` [Ex. 52, 3-(3,4-dimethoxyphenyl)-N-(3,4-dimethylphenyl)-2,5-dimethyl-pyrazolo[1,5-a]pyrimidin-7-amine]: 63%.
`COc1ccc(-c2c(C)nn3c(Nc4ccc(C)c(Cl)c4)cc(C)nc23)cc1OC` [Ex. 55, N-(3-chloro-4-methyl-phenyl)-3-(3,4-dimethoxyphenyl)-2,5-dimethyl-pyrazolo[1,5-a]pyrimidin-7-amine] registered an inhibition at 1 µM in the assay with Ljungan virus strain 145 of 41%.
Still for that read-out and setting: the figure for `COc1ccc(-c2c(C)nn3c(Nc4cc(C)cc(C)c4)cc(C)nc23)cc1OC` [Ex. 56, 3-(3,4-dimethoxyphenyl)-N-(3,5-dimethylphenyl)-2,5-dimethyl-pyrazolo[1,5-a]pyrimidin-7-amine] is 61%.
In the case of `COc1ccc(-c2c(C)nn3c(Nc4ccc(C(C)C)cc4)cc(C)nc23)cc1OC` [Ex. 60, 3-(3,4-dimethoxyphenyl)-N-(4-isopropylphenyl)-2,5-dimethyl-pyrazolo[1,5-a]pyrimidin-7-amine], the inhibition at 1 µM with Enterovirus strain 71 amounted to 69%.
`COc1cccc(Nc2cc(C)nc3c(-c4ccc(OC)c(OC)c4)c(C)nn23)c1` [Ex. 61, 3-(3,4-dimethoxyphenyl)-N-(3-methoxyphenyl)-2,5-dimethyl-pyrazolo[1,5-a]pyrimidin-7-amine]: the inhibition at 10 µM in the assay with Ljungan virus strain 145 was 85%.
Same read-out and setting: next, `COc1ccc(-c2c(C)nn3c(NCCc4ccccn4)cc(C)nc23)cc1` [Ex. 68, 3-(4-methoxyphenyl)-2,5-dimethyl-N-[2-(2-pyridyl)ethyl]pyrazolo[1,5-a]pyrimidin-7-amine]: 86%.
As to `COc1ccc(-c2c(C)nn3c(Nc4ccncc4)cc(C)nc23)cc1OC` [Ex. 74, 3-(3,4-dimethoxyphenyl)-2,5-dimethyl-N-(4-pyridyl)pyrazolo[1,5-a]pyrimidin-7-amine], the inhibition at 10 µM in the assay with Ljungan virus strain 012 was found to be 55%.
`COc1ccc(-c2c(C)nn3c(NCc4ccc(OC(F)(F)F)cc4)cc(C)nc23)cc1OC` [Ex. 76, 3-(3,4-dimethoxyphenyl)-2,5-dimethyl-N-[[4-(trifluoromethoxy)phenyl]methyl]pyrazolo[1,5-a]pyrimidin-7-amine]: the inhibition at 1 µM in assay [2] turned out to be 100%.
In the case of `COc1ccc(-c2c(C)nn3c(NCc4ccc(NC(C)=O)cc4)cc(C)nc23)cc1OC` [Ex. 77, N-[4-[[[3-(3,4-dimethoxyphenyl)-2,5-dimethyl-pyrazolo[1,5-a]pyrimidin-7-yl]amino]methyl]phenyl]acetamide], the inhibition at 0.1 µM in assay [2] amounted to 60%.
As to `COc1ccc(-c2c(C)nn3c(NCc4ccc(N(C)C)cc4)cc(C)nc23)cc1OC` [Ex. 78, 3-(3,4-dimethoxyphenyl)-N-[(4-dimethylaminophenyl)methyl]-2,5-dimethyl-pyrazolo[1,5-a]pyrimidin-7-amine], in assay [3], the inhibition at 0.1 µM stood at 94%.
In the assay with Enterovirus strain 71, `COc1ccc(-c2c(C)nn3c(NCc4cc[n+]([O-])cc4)cc(C)nc23)cc1OC` [Ex. 83, 3-(3,4-dimethoxyphenyl)-2,5-dimethyl-N-[(1-oxidopyridin-1-ium-4-yl)methyl]pyrazolo[1,5-a]pyrimidin-7-amine] showed an inhibition at 0.01 µM of 82%.
In the case of `COc1ccc(-c2c(C)nn3c(NCc4ccc(S(C)(=O)=O)cc4)cc(C)nc23)cc1OC` [Ex. 84, 3-(3,4-dimethoxyphenyl)-2,5-dimethyl-N-[(4-methylsulfonylphenyl)methyl]pyrazolo[1,5-a]pyrimidin-7-amine], in assay [2], the inhibition at 0.1 µM is 84%.
Consider `COc1ccc(-c2c(C)nn3c(NCCc4ccccn4)cc(C)nc23)cc1OC` [Ex. 85, 3-(3,4-dimethoxyphenyl)-2,5-dimethyl-N-[2-(2-pyridyl)ethyl]pyrazolo[1,5-a]pyrimidin-7-amine], for which the inhibition at 1 µM in assay [3] worked out at 98%.
For `COc1ccc(-c2c(C)nn3c(NCc4ccc(C(C)(C)C)cc4)cc(C)nc23)cc1OC` [Ex. 86, N-[(4-tert-butylphenyl)methyl]-3-(3,4-dimethoxyphenyl)-2,5-dimethyl-pyrazolo[1,5-a]pyrimidin-7-amine], in the assay on Ljungan virus strain 012, the inhibition at 10 µM came to 48%.
On to `COc1ccc(-c2c(C)nn3c(NCCc4cccs4)cc(C)nc23)cc1OC` [Ex. 88, 3-(3,4-dimethoxyphenyl)-2,5-dimethyl-N-[2-(2-thienyl)ethyl]pyrazolo[1,5-a]pyrimidin-7-amine], for which the inhibition at 1 µM in the assay on Enterovirus strain 30 (EV30, Conc. 1.0 μM, read-out: % inh.) was found to be 88%.
Regarding `COc1ccc(-c2c(C)nn3c(NC4Cc5ccccc5C4)cc(C)nc23)cc1OC` [Ex. 91, 3-(3,4-dimethoxyphenyl)-N-indan-2-yl-2,5-dimethyl-pyrazolo[1,5-a]pyrimidin-7-amine], the inhibition at 1 µM in assay [1] is 75%.
For `COc1ccc(-c2c(C)nn3c(Nc4ncc(C)s4)cc(C)nc23)cc1OC` [Ex. 93, N-[3-(3,4-dimethoxyphenyl)-2,5-dimethyl-pyrazolo[1,5-a]pyrimidin-7-yl]-5-methyl-thiazol-2-amine], in the assay with Ljungan virus strain 012 (LV012, Conc. 100 μM), the inhibition at 100 µM was determined as 42%.
Consider `COc1ccc(-c2c(C)nn3c(NCc4cccc5ccccc45)cc(C)nc23)cc1OC` [Ex. 96, 3-(3,4-dimethoxyphenyl)-2,5-dimethyl-N-(1-naphthylmethyl)pyrazolo[1,5-a]pyrimidin-7-amine], for which the inhibition at 0.1 µM in assay [3] was found to be 100%.
`COc1ccc(-c2c(C)nn3c(NCc4ccc(S(N)(=O)=O)cc4)cc(C)nc23)cc1OC` [Ex. 97, 4-[[[3-(3,4-dimethoxyphenyl)-2,5-dimethyl-pyrazolo[1,5-a]pyrimidin-7-yl]amino]methyl]benzenesulfonamide] gave an inhibition at 0.1 µM with Enterovirus strain 71 (EV71, Conc. 0.1 μM) of 94%.
For the molecule `COc1ccc(-c2cnn3c(NCc4ccc(F)cc4)cc(C)nc23)cc1OC` [Ex. 99, 3-(3,4-dimethoxyphenyl)-N-[(4-fluorophenyl)methyl]-5-methyl-pyrazolo[1,5-a]pyrimidin-7-amine], in assay [2], the inhibition at 0.1 µM was 100%.
Regarding `COc1cc(-c2c(C)nn3c(NCc4ccc(F)cc4)cc(C)nc23)cc(OC)c1OC` [Ex. 105, N-[(4-fluorophenyl)methyl]-2,5-dimethyl-3-(3,4,5-trimethoxyphenyl)pyrazolo[1,5-a]pyrimidin-7-amine], in the assay on Enterovirus strain 30 (EV30, Conc. 10 μM, read-out: % inh.), the inhibition at 10 µM was 67%.
Take `Cc1cc(NCc2ccc(F)cc2)n2nc(C)c(-c3ccc(F)c(F)c3)c2n1` [Ex. 106, 3-(3,4-difluorophenyl)-N-[(4-fluorophenyl)methyl]-2,5-dimethyl-pyrazolo[1,5-a]pyrimidin-7-amine]: the inhibition at 10 µM in the assay on Ljungan virus strain 145 came out at 100%.
For the molecule `COc1ccc(-c2c(C)nn3c(NCc4ccc(C)cc4)cc(C)nc23)cc1F` [Ex. 108, 3-(3-fluoro-4-methoxy-phenyl)-2,5-dimethyl-N-(p-tolylmethyl)pyrazolo[1,5-a]pyrimidin-7-amine], the inhibition at 1 µM in assay [3] is 100%.
Take `Cc1ccc(CNc2cc(C)nc3c(-c4ccc(O)c(O)c4)c(C)nn23)cc1` [Ex. 110, 4-[2,5-dimethyl-7-(p-tolylmethylamino)pyrazolo[1,5-a]pyrimidin-3-yl]benzene-1,2-diol]: the inhibition at 1 µM in assay [1] stood at 72%.

The values above are taken from patent US9963455B2, “Pyrazolo[1,5-a]pyrimidines as antiviral compounds” (Curovir AB, priority 2014, dated 2018).
